This assay deals with HCV NS3 protease (UniProt P26663). The format is biochemical, HCV genotype 1b. The arrangement: rows headed: IC50 (μM); IC50 (μM). Here is the method: Recombinant HCV NS3 Protease/NS4A Cofactor Peptide Radiometric Assay
The enzyme was cloned, expressed and prepared according to the protocol described in Example 36. The enzyme was stored at −80° C., thawed on ice and diluted just prior to use in the assay buffer containing the NS4A cofactor peptide.
The substrate used for the NS3 protease/NS4A cofactor peptide radiometric assay, DDIVPC-SMSYTW, is cleaved between the cysteine and the serine residues by the enzyme. The sequence DDIVPC-SMSYTW corresponds to the NS5A/NS5B natural cleavage site in which the cysteine residue in P2 has been substituted for a proline. […] (molar ratio enzyme:cofactor 1:100) in the absence or presence of inhibitors. The separation of substrate from products is performed by adding avidin-coated agarose beads to the assay mixture followed by filtration. The amount of SMS[^125I-Y]TW product found in the filtrate allows for the calculation of the percentage of substrate conversion and of the percentage of inhibition.
The enzymatic reaction was initiated by the addition of the enzyme/NS4A peptide solution and the assay mixture was incubated for 40 min at 23° C. under gentle agitation. Ten (10) μL of 0.5N NaOH were added and 10 μL 1 M MES, pH 5.8 were added to quench the enzymatic reaction.
A non-linear curve fit with the Hill model was applied to the inhibition-concentration data, and the 50% effective concentration (IC50) was calculated by the use of SAS software (Statistical Software System; SAS Institute, Inc. Cary, N.C.). […]
The NS2-NS5B-3′ non coding region was cloned by RT-PCR into the pCR®3 vector (Invitrogen) using RNA extracted from the serum of an HCV genotype 1b infected individual (provided by Dr. Bernard Willems, Hôpital St-Luc, Montréal, Québec, Canada). The NS3-NS4A DNA region was then subcloned by PCR into the pFastBac™ HTa baculovirus expression vector (Gibco/BRL). The vector sequence includes a region encoding a 28-residue N-terminal sequence which contains a hexahistidine tag. The Bac-to-Bac™ baculovirus expression system (Gibco/BRL) was used to produce the recombinant baculovirus. The full length mature NS3 and NS4A heterodimer protein (His-NS3-NS4AFL) was expressed by infecting 10^6 Sf21 cells/mL with the recombinant baculovirus at a multiplicity of infection of 0.1-0.2 at 27° C. The infected culture was harvested 48 to 64 h later by centrifugation at 4° C. The cell pellet was homogenized in 50 mM NaPO4, pH 7.5, 40% glycerol (w/v), 2 mM β-mercaptoethanol, in presence of a cocktail of protease inhibitors. His-NS3-NS4AFL was then extracted from the cell lysate with 1.5% NP-40, 0.5% Triton X-100, 0.5M NaCl, and a DNase treatment. After ultracentrifugation, the soluble extract was diluted 4-fold and bound on a Pharmacia Hi-Trap Ni-chelating column. […] The His-NS3-NS4AFL was stored at −80° C. in 50 mM sodium phosphate, pH 7.5, 10% (w/v) glycerol, 0.5 M NaCl, 0.25 M imidazole, 0.1% NP-40. It was thawed on ice and diluted just prior to use. The protease activity of His-NS3-NS4AFL was assayed in 50 mM Tris-HCl, pH 8.0, 0.25 M sodium citrate, 0.01% (w/v) n-dodecyl-β-D-maltoside, 1 mM TCEP. Five (5) μM of the internally quenched substrate anthranilyl-DDIVPAbu[C(O)—O]-AMY(3-NO2)TW-OH in presence of various concentrations of inhibitor were incubated with 1.5 nM of His-NS3-NS4AFL for 45 min at 23° C. […] The reaction was terminated with the addition of 1M MES, pH 5.8. Fluorescence of the N-terminal product was monitored on a Perkin-Elmer LS-50B fluorometer equipped with a 96-well plate reader (excitation wavelength: 325 nm; emission wavelength: 423 nm).
The following tables list compounds representative of the invention.

Molecules are shown by their SMILES. Where two headings read alike, the source gives them in different places.

HCV NS3 protease, sequence (P26663 1027-1206, other chains not shown): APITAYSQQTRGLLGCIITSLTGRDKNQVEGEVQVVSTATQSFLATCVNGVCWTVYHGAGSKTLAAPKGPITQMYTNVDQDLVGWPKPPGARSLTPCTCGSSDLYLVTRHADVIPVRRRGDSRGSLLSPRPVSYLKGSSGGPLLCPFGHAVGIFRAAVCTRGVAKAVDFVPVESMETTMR

As a reminder, the IC50 is the point on the concentration scale where inhibition reaches its midpoint. A low value points to greater potency. `C=CC1CC1(NC(=O)C1CC(Oc2cc(-c3ccccc3)nc3cc(OC)ccc23)CN1C(=O)C(NC(=O)OC1CCOC1)C(C)(C)C)C(=O)O` (centres unmarked) [compound 867] yielded an IC50 (Table 8) of 51 nM.

Compound `C=CC1CC1(NC(=O)C1CC(Oc2cc(-c3ccccc3)nc3cc(OC)ccc23)CN1C(=O)C(NC(=O)OC(C)(C)C)C(C)OCc1ccccc1)C(=O)O` (centres unmarked) [compound 853] showed an IC50 (Table 8) of 170 nM. Take `C=CC1CC1(NC(=O)C1CC(Oc2ccnc3ccccc23)CN1C(=O)C(NC(=O)OC(C)(C)C)C(C)CC)C(=O)O` (centres unmarked) [compound 510]: under “Table 5”, 255 nM corresponded to half-maximal inhibition (IC50). `C=CC1CC1(NC(=O)C1CC(Oc2cc(N3CCOCC3)nc3ccccc23)CN1C(=O)C(NC(=O)OC(C)(C)C)C(C)(C)C)C(=O)O` (centres unmarked) [compound 612]: the IC50 (Table 6) was determined as 278 nM. Under “Table 7”, `C=CC1CC1(NC(=O)C1CC(Oc2cc(N3CCc4ccccc43)nc3cc(OC)ccc23)CN1C(=O)C(NC(=O)OC(C)(C)C)C(C)(C)C)C(=O)O` (centres unmarked) [compound 704] had an IC50 of 240 nM. For the setting “Table 8”, `C=CC1CC1(NC(=O)C1CC(Oc2cc(-c3ccccc3)nc3cc(OC)ccc23)CN1C(=O)C(CC(C)(C)C)NC(=O)OC(C)(C)C)C(=O)O` (centres unmarked) [compound 849] registered an IC50 of 110 nM. `C=CC1CC1(NC(=O)C1CC(Oc2cc(-c3cccnc3)nc3cc(OC)ccc23)CN1C(=O)C(NC(=O)OC(C)(C)C)C(C)(C)C)C(=O)O` (centres unmarked) [compound 727] returned an IC50 (Table 7) of 70 nM.

In the case of `C=CC1CC1(NC(=O)C1CC(Oc2cc(-c3ccccc3)nc3cc(OC)ccc23)CN1C(=O)C(Nc1ccccc1)C(C)C)C(=O)O` (centres unmarked) [compound 809], 71 nM corresponded to half-maximal inhibition (Table 8) (IC50). Turning to `C=CC1CC1(NC(=O)C1CC(Oc2cc(-c3csc(CS(C)(=O)=O)n3)nc3cc(OC)ccc23)CN1C(=O)C(NC(=O)OC(C)(C)C)C(C)(C)C)C(=O)O` (centres unmarked) [compound 728], under “Table 7”, half-maximal inhibition (IC50) required 22 nM. As for `C=CC1CC1(NC(=O)C1CC(Oc2cc(-c3ccccc3)nc3cc(OC)ccc23)CN1C(=O)C(Nc1cccc(CC#N)c1)C(C)C)C(=O)O` (centres unmarked) [compound 861], for the setting “Table 8”, the IC50 was 170 nM. In turn, `C=CC1CC1(NC(=O)C1CC(Oc2cc(-c3csc(NC(C)(C)C)n3)nc3cc(OC)ccc23)CN1C(=O)C(NC(=O)OC(C)(C)C)C(C)(C)C)C(=O)O` (centres unmarked) [compound 733] had an IC50 (Table 7) of 28 nM. The same measure, in the same setting: the value for `C=CC1C[C@]1(NC(=O)[C@@H]1C[C@@H](Oc2cc(C(C)(C)C)nc3cc(OC)ccc23)CN1C(=O)[C@@H](NC(=O)OC(C)(C)C)C(C)(C)C)C(=O)O` (some centres unmarked) [compound 736] was 250 nM; that for `C=CC1CC1(NC(=O)C1CC(Oc2cc(-c3cscn3)nc3cc(OC)ccc23)CN1C(=O)C(NC(=O)OC(C)(C)C)C(C)(C)C)C(=O)O` (centres unmarked) [compound 713] was 26 nM. Under “Table 8”, `C=CC1CC1(NC(=O)C1CC(Oc2cc(-c3ccccc3)nc3cc(OC)ccc23)CN1C(=O)C(NC(=O)NC1CCCCC1)C(C)(C)C)C(=O)O` (centres unmarked) [compound 808] showed an IC50 of 8 nM. Same read-out and setting: the value for `C=CC1CC1(NC(=O)C1CC(Oc2cc(-c3ccccc3)nc3cc(OC)ccc23)CN1C(=O)C(NC(=S)NC(C)(C)C)C(C)(C)C)C(=O)O` (centres unmarked) [compound 813] was 20 nM.

In turn, `C=CC1CC1(NC(=O)C1CC(Oc2cc(-c3ccccn3)nc3cc(OC)ccc23)CN1C(=O)C(NC(=O)OC(C)(C)C)C(C)(C)C)C(=O)O` (centres unmarked) [compound 715] yielded an IC50 (Table 7) of 31 nM.

Take `C=CC1C[C@]1(NC(=O)[C@@H]1C[C@@H](Oc2ccnc3ccccc23)CN1C(=O)[C@@H](NC(=O)OC(C)(C)C)C(C)(C)C)C(=O)O` (some centres unmarked) [compound 501]: the IC50 (Table 5) was 400 nM. In turn, `C=CC1CC1(NC(=O)C1CC(Oc2cc(-c3ccccc3)nc3cc(OC)ccc23)CN1C(=O)C(NC(=O)NC(CC)C(C)(C)C)C(C)(C)C)C(=O)O` (centres unmarked) [compound 906] registered an IC50 (Table 9) of 14 nM. For `C=CC1CC1(NC(=O)C1CC(Oc2cc(-c3nccs3)nc3cc(OC)ccc23)CN1C(=O)C(NC(=O)OC(C)(C)C)C(C)(C)C)C(=O)O` (centres unmarked) [compound 707], where the note is “Table 7”, it took 23 nM to reach half-maximal inhibition (IC50).

On to `C=CC1CC1(NC(=O)C1CC(Oc2cc(-c3ccccc3)nc3cc(OC)ccc23)CN1C(=O)C(Nc1ccc(F)cc1)C(C)C)C(=O)O` (centres unmarked) [compound 840], for which the IC50 (Table 8) turned out to be 85 nM.

Source of the values: patent publication US6534523B1, “Hepatitis C inhibitor tri-peptides” (Boehringer Ingelheim (Canada) Ltd., priority 1998, dated 2003).
